Measurements: patent US10011610B2, “Selective BACE1 inhibitors” (Eli Lilly and Company, priority 2015, dated 2018)
Where two headings read alike, the source gives them in different places.

Tests used:
[1] = test system: BACE1 activity in SH-SY5YAPP695Wt cells; assay: SH-SY5YAPP695Wt Whole Cell Assay (Abeta 1-40 and 1-42 ELISA); assay type: cell-based; settings: Homo sapiens, 24 hours incubation, mean±standard deviation of the mean, n=4
Procedure: (§1) To assess selectivity of BACE1 over BACE2, the test compound is evaluated in FRET and immunoassay detection base enzymatic assays using specific substrates for BACE1 and BACE2 as described below. For in vitro enzymatic and cellular assays, the test compound is prepared in DMSO to make up a 10 mM stock solution. The stock solution is serially diluted in DMSO to obtain a ten-point dilution curve with final compound concentrations ranging from 10 μM to 0.05 nM in a 96-well round-bottom plate before conducting the in vitro enzymatic and whole cell assays.
The routine whole cell assay for the measurement of inhibition of BACE1 activity utilizes the human neuroblastoma cell line SH-SY5Y (ATCC Accession No. CRL2266) stably expressing a human APP695Wt cDNA. Cells are routinely used up to passage number 6 and then discarded.
SH-SY5YAPP695Wt cells are plated in 96 well tissue culture plates at 5.0×10^4 cells/well in 200 μL culture media (50% MEM/EBSS and Ham's F12, lx each sodium pyruvate, non-essential amino acids and NaHCO3 containing 10% FBS). […]
At the end of the incubation, conditioned media are analyzed for evidence of beta-secretase activity by analysis of Abeta peptides 1-40 and 1-42 by specific sandwich ELISAs. […]

[2] = target: T1, human BACE1(1-460):Fc (Homo sapiens, UniProt P56817); assay: BACE1 FRET Assay; assay type: biochemical; settings: purified recombinant huBACE1:Fc, mean±standard deviation of the mean, n=4
T1 construct: made in house; host or cells: HEK293 (transient transfection, purified from conditioned media by Protein A)
T1 sequence (P56817 22-460): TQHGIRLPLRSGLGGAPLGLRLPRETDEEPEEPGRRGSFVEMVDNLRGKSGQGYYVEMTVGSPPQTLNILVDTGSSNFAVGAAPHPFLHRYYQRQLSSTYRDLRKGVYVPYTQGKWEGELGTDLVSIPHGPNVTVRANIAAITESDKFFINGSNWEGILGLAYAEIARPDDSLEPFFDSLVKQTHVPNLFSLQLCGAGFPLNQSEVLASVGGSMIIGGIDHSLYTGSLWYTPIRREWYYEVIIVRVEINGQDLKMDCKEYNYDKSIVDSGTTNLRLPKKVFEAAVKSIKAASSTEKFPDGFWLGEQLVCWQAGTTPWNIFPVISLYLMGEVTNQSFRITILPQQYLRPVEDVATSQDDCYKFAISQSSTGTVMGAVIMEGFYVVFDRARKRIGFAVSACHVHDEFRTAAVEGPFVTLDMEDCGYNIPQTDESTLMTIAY
Procedure: as §1
(§2) Human BACE1 (accession number: AF190725) and human BACE2 (accession number: AF 204944) are cloned from total brain cDNA by RT-PCR. The nucleotide sequences corresponding to amino acid sequences #1 to 460 are inserted into the cDNA encoding human IgG1 (Fc) polypeptide (Vassar et al., Science, 286, 735-742 (1999)). […]
(§3) Conditioned media of HEK293 cells transiently transfected with huBACE1:Fc or huBACE2:Fc cDNA are collected. […] The purity of final product is assessed by electrophoresis in 4-20% Tris-Glycine SDS-PAGE. […]
Serial dilutions of the test compound are prepared as described above. […] The RFU of the mixture at time 0 is recorded at excitation wavelength 355 nm and emission wavelength 460 nm, after brief mixing on a plate shaker. […] The RFU at the end of incubation is recorded with the same excitation and emission settings used at time 0. […]

[3] = test system: Abeta 1-x peptide levels in brain; assay: In Vivo Inhibition of Beta-Secretase (brain Abeta 1-x in PDAPP mice); settings: p<0.01; for reduction of Abeta 1-x peptide levels in brain hippocampus: young female PDAPP mice; for reduction of Abeta 1-x levels in brain cortical tissue: PDAPP mice, compared to vehicle-treated mice three hours after dosing
Description: Several animal models, including mouse, guinea pig, dog, and monkey, may be used to screen for inhibition of beta-secretase activity in vivo following compound treatment. Animals used in this invention can be wild type, transgenic, or gene knockout animals. For example, the PDAPP mouse model, prepared as described in Games et al., Nature 373, 523-527 (1995), and other non-transgenic or gene knockout animals are useful to analyze in vivo inhibition of Abeta and sAPPbeta production in the presence of inhibitory compounds. Generally, 2 month old PDAPP mice, gene knockout mice or non-transgenic animals are administered compound formulated in vehicles, such as corn oil, beta-cyclodextran, phosphate buffers, PHARMASOLVE®, or other suitable vehicles via oral, subcutaneous, intra-venous, feeding, or other route of administration. 1 to 24 hours following the administration of compound, animals are sacrificed, and brains are removed for analysis of Abeta 1-x. “Abeta 1-x” as used herein refers to the sum of Abeta species that begin with residue 1 and end with a C-terminus greater than residue 28. This detects the majority of Abeta species and is often called “total Abeta”. Total Abeta peptides (Abeta 1-x) levels are measured by a sandwich ELISA, using monoclonal 266 as a capture antibody and biotinylated 3D6 as reporting antibody. (See May, et al., Journal of Neuroscience, 31, 16507-16516 (2011)).
For acute studies, compound or appropriate vehicle is administered and animals are sacrificed at about 3 hours after dosing. Brain tissue, is obtained from selected animals and analyzed for the presence of Abeta 1-x. After chronic dosing brain tissues of older APP transgenic animals may also be analyzed for the amount of beta-amyloid plaques following compound treatment.
For example, a 0.1, 0.3, and 1 mg/kg oral dose of Example 1, to young female PDAPP mice reduced Abeta 1-x peptide levels in brain hippocampus by 32%, 40%, and 55% (all values p<0.01), respectively.

[4] = target: T2, human BACE2 (1-460):Fc (Homo sapiens, UniProt Q9Y5Z0); assay: BACE2 MBP-C125Swe Assay; assay type: biochemical
T2 construct: made in house; host or cells: HEK293 (transient transfection, purified from conditioned media by Protein A)
T2 sequence (Q9Y5Z0 21-460): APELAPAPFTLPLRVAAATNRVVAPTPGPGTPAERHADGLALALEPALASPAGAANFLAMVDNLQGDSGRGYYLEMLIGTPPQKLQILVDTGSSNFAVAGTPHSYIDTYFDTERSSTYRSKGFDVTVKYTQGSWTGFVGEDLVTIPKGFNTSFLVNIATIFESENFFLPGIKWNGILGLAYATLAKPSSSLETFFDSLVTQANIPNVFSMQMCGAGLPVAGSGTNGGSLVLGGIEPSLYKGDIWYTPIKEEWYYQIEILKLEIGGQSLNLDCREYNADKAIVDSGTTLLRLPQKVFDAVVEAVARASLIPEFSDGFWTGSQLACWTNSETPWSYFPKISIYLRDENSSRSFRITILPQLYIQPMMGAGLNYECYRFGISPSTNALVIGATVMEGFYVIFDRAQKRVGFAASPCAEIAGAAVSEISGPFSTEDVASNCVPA
Procedure: as §1
as §2, with “(1999)). This fusion protein of BACE1(1-460) or BACE2(1-460) and human Fc, named huBACE1:Fc and huBACE2:Fc respectively, are constructed in the pJB02 vector.” for “(1999)).”
as §3
10 point serial dilutions of test compounds are prepared in the appropriate range. […] The amount of product is measured by ELISA using MBP-C26swe standard. […]

IC50 ([1]; read-out: IC50 for SH-SY5YAPP695Wt A-beta (1-40) ELISA): 0.157 nM | IC50 ([1]; read-out: IC50 for SH-SY5YAPP695Wt A-beta (1-42) ELISA): 0.177 nM | IC50 [2]: 0.509 nM | IC50 ([4]; MBP-C125Swe substrate, ELISA detection, mean±standard deviation of the mean, n=6): 17.6 nM | ratio of BACE1 (FRET IC50 enzyme assay) to BACE2 (MBP-C125Swe cell assay) ([4]; selectivity for BACE1 over BACE2): approximately 35 fold
SMILES: CC(F)(F)[C@H]1OC[C@]2(c3cc(NC(=O)c4ccc(C#N)cn4)ccc3F)N=C(N)SC[C@H]12 [Example 1, N-[3-[(4aS,5S,7aS)-2-Amino-5-(1,1-difluoroethyl)-4,4a,5,7-tetrahydrofuro[3,4-d][1,3]thiazin-7a-yl]-4-fluoro-phenyl]-5-cyano-pyridine-2-carboxamide]
reduction of Abeta 1-x peptide levels in brain hippocampus ([3]; 0.1 mg/kg oral dose): 32% | reduction of Abeta 1-x levels in brain cortical tissue ([3]; 0.1 mg/kg): 38% | reduction of Abeta 1-x peptide levels in brain hippocampus ([3]; 0.3 mg/kg oral dose): 40% | reduction of Abeta 1-x levels in brain cortical tissue ([3]; 0.3 mg/kg): 50% | reduction of Abeta 1-x peptide levels in brain hippocampus ([3]; 1 mg/kg oral dose): 55% | reduction of Abeta 1-x levels in brain cortical tissue ([3]; 1 mg/kg): 67%
